Experimental data as given in patent US20020137929A1, “1 - (3-heterocyclylphenyl) isothiourea, -isourea, -guanidine and -amidine herbicidal agents” (Intellectual Property Department, BASF Aktiengesellschaft, priority 1998, published 2002).

What was measured:
ABUTH (Velvetleaf) [1] = experiment: Postemergence herbicidal evaluation; format: in vivo, Abutilon theophrasti
Summary of the method: (§1)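 Visual 0–9 rating versus control (stand, vigor, malformation, size, chlorosis, overall appearance), taken four to five weeks post-spray. Two-week-old seedlings received roughly 0.0156–0.500 kg/ha active in acetone/water (50/50) with 0.5% TWEEN 20 via nozzle at 40 psi.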

AMBEL (Ragweed, Common) = experiment: Postemergence herbicidal evaluation; format: in vivo, Ambrosia artemisifolia
Summary of the method: as §1

ECHCG (Barnyardgrass) = experiment: Postemergence herbicidal evaluation; format: in vivo, Echinochloa crus-galli
Summary of the method: as §1

SETVI (Foxtail, Green) [2] = experiment: Postemergence herbicidal evaluation; format: in vivo, Setaria viridis
Summary of the method: as §1

[3] = test system: GLXMAW (Soybean, Williams); experiment: Postemergence herbicidal evaluation; format: in vivo, Glycine max, (L.) Merr. cv Williams
Summary of the method: as §1

ORYSAT (Rice, Tebonnet) = experiment: Postemergence herbicidal evaluation; format: in vivo, Oryza sativa, (L.) Tebonnet
Summary of the method: as §1

[4] = test system: TRZAWR (Wheat, Winter, cv Riband); experiment: Postemergence herbicidal evaluation; format: in vivo, Triticum aestivum
Summary of the method: as §1

ABUTH (Velvetleaf) [5] = experiment: Preemergence herbicidal evaluation; format: in vivo, Abutilon theophrasti; conditions: rated 4-5 weeks after treatment
Summary of the method: (§2)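 Seeds were planted in potting soil in cups, then sprayed preemergence with the test compound in aqueous acetone at about 0.0156 to 0.500 kg per hectare. Cups were kept under greenhouse conditions and visually rated 4–5 weeks after treatment on a 0–9 scale against an untreated control.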

CASOB (Sicklepod) = experiment: Preemergence herbicidal evaluation; format: in vivo, Cassia obtusifolia; conditions: rated 4-5 weeks after treatment
Summary of the method: as §2

SETVI (Foxtail, Green) [6] = experiment: Preemergence herbicidal evaluation; format: in vivo, Setaria viridis; conditions: rated 4-5 weeks after treatment
Summary of the method: as §2

MOOVA (Monochoria) = experiment: Preemergence weed control under flooded paddy conditions; format: in vivo, Monochoria vaginalis; conditions: rated 3-4 weeks after treatment
Summary of the method: (§3)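 Greenhouse paddy assay. Acetone/water (50/50 v/v) solutions dosed into flood water, equivalent to about 0.0313 to 0.500 kg/ha active ingredient, over seeds planted 0.5 cm deep in silt loam. Score: 0-9 visual, based on stand, vigor, malformation, size and chlorosis, 3 to 4 weeks after treatment.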

CYPIR (Rice Flatsedge) = experiment: Postemergence weed control under flooded paddy conditions; format: in vivo, Cyperus iria; conditions: postemergence weeds, 3-4 weeks after treatment
Description: Results of herbicide evaluation are expressed on a rating scale (0-9). The scale is based upon a visual observation of plant stand, vigor, malformation, size, chlorosis and overall plant appearance as compared with a control.
Plastic containers containing weeds which are 3 to 5 cm tall and rice seedlings at the 1.5 to 2.5 leaf stage are flooded with water. The water is maintained at 1.5 to 3 cm above the soil surface for the duration of the experiment. Test compounds are applied as aqueous/ acetone mixtures 50/50 v/v directly into the flood water to provide the equivalent of about 0.0313 to 0.500 kg/ha of active ingredient. The treated containers are placed on greenhouse benches and cared for in accordance with conventional greenhouse procedures. Three to four weeks after treatment, the test is terminated and each container is examined and herbicidal effect rated according to the rating system provided in Example 37. The compounds evaluated are reported by compound number given in Example 37.

[7] = test system: SAGPY (Arrowhead (Pygmaea)); experiment: Preemergence weed control under flooded paddy conditions; format: in vivo, Sagittaria pygmaea; conditions: rated 3-4 weeks after treatment
Summary of the method: as §3

[8] = postemergence, rate 0.0625 kg/ha

## C=CCN1C(=O)C(CC(=O)Nc2ccccc2)SC1=Nc1cc(-n2c(=O)cc(C(F)(F)F)n(C)c2=O)c(F)cc1Cl (centres unmarked) [Compound 44, 3-Allyl-2-{{2-chloro-5-[3,6-dihydro-3-methyl-2,6-dioxo-4-(trifluoromethyl)-1(2H)-pyrimidinyl]-4-fluorophenyl}imino}-4-oxo-5-thiazolidineacetanilide]
ABUTH (Velvetleaf) [1]; Rate 0.0156 kg/ha
  Postemergence herbicidal rating ABUTH: 9.0
ABUTH (Velvetleaf) [1]; Rate 0.0313 kg/ha
  Postemergence herbicidal rating ABUTH: 7.0
ABUTH (Velvetleaf) [1]; Rate 0.0625 kg/ha
  Postemergence herbicidal rating ABUTH: 9.0
ABUTH (Velvetleaf) [1]; Rate 0.1250 kg/ha
  Postemergence herbicidal rating ABUTH: 9.0
AMBEL (Ragweed, Common); Rate 0.0156 kg/ha
  Postemergence herbicidal rating AMBEL: 4.0
AMBEL (Ragweed, Common); Rate 0.0313 kg/ha
  Postemergence herbicidal rating AMBEL: 4.0
AMBEL (Ragweed, Common); Rate 0.0625 kg/ha
  Postemergence herbicidal rating AMBEL: 7.0
AMBEL (Ragweed, Common); Rate 0.1250 kg/ha
  Postemergence herbicidal rating AMBEL: 9.0
ECHCG (Barnyardgrass); Rate 0.0156 kg/ha
  Postemergence herbicidal rating ECHCG: 0.0
ECHCG (Barnyardgrass); Rate 0.0313 kg/ha
  Postemergence herbicidal rating ECHCG: 1.0
ECHCG (Barnyardgrass); Rate 0.0625 kg/ha
  Postemergence herbicidal rating ECHCG: 2.0
ECHCG (Barnyardgrass); Rate 0.1250 kg/ha
  Postemergence herbicidal rating ECHCG: 1.0
SETVI (Foxtail, Green) [2]; Rate 0.0156 kg/ha
  Postemergence herbicidal rating SETVI: 0.0
SETVI (Foxtail, Green) [2]; Rate 0.0313 kg/ha
  Postemergence herbicidal rating SETVI: 0.0
SETVI (Foxtail, Green) [2]; Rate 0.0625 kg/ha
  Postemergence herbicidal rating SETVI: 2.0
SETVI (Foxtail, Green) [2]; Rate 0.1250 kg/ha
  Postemergence herbicidal rating SETVI: 2.0
[3]; Rate 0.0156 kg/ha
  Postemergence herbicidal rating GLXMAW: 4.5
[3]; Rate 0.0313 kg/ha
  Postemergence herbicidal rating GLXMAW: 5.0
[3]; Rate 0.0625 kg/ha
  Postemergence herbicidal rating GLXMAW: 5.5
[3]; Rate 0.1250 kg/ha
  Postemergence herbicidal rating GLXMAW: 6.0
ORYSAT (Rice, Tebonnet); Rate 0.0156 kg/ha
  Postemergence herbicidal rating ORYSAT: 3.0
ORYSAT (Rice, Tebonnet); Rate 0.0313 kg/ha
  Postemergence herbicidal rating ORYSAT: 4.0
ORYSAT (Rice, Tebonnet); Rate 0.0625 kg/ha
  Postemergence herbicidal rating ORYSAT: 4.0
ORYSAT (Rice, Tebonnet); Rate 0.1250 kg/ha
  Postemergence herbicidal rating ORYSAT: 4.0
[4]; Rate 0.0156 kg/ha
  Postemergence herbicidal rating TRZAWR: 3.0
[4]; Rate 0.0313 kg/ha
  Postemergence herbicidal rating TRZAWR: 4.0
[4]; Rate 0.0625 kg/ha
  Postemergence herbicidal rating TRZAWR: 4.0
[4]; Rate 0.1250 kg/ha
  Postemergence herbicidal rating TRZAWR: 4.0
ABUTH (Velvetleaf) [5]; rate 0.0156 kg/ha
  Preemergence herbicidal rating ABUTH: 0.0
ABUTH (Velvetleaf) [5]; rate 0.0313 kg/ha
  Preemergence herbicidal rating ABUTH: 0.0
ABUTH (Velvetleaf) [5]; rate 0.0625 kg/ha
  Preemergence herbicidal rating ABUTH: 0.0
ABUTH (Velvetleaf) [5]; rate 0.1250 kg/ha
  Preemergence herbicidal rating ABUTH: 9.0
ABUTH (Velvetleaf) [5]; rate 0.2500 kg/ha
  Preemergence herbicidal rating ABUTH: 9.0
ABUTH (Velvetleaf) [5]; rate 0.5000 kg/ha
  Preemergence herbicidal rating ABUTH: 9.0
CASOB (Sicklepod); rate 0.0156 kg/ha
  Preemergence herbicidal rating CASOB: 0.0
CASOB (Sicklepod); rate 0.0313 kg/ha
  Preemergence herbicidal rating CASOB: 0.0
CASOB (Sicklepod); rate 0.0625 kg/ha
  Preemergence herbicidal rating CASOB: 0.0
CASOB (Sicklepod); rate 0.1250 kg/ha
  Preemergence herbicidal rating CASOB: 1.0
CASOB (Sicklepod); rate 0.2500 kg/ha
  Preemergence herbicidal rating CASOB: 0.0
CASOB (Sicklepod); rate 0.5000 kg/ha
  Preemergence herbicidal rating CASOB: 1.0
SETVI (Foxtail, Green) [6]; rate 0.0156 kg/ha
  Preemergence herbicidal rating SETVI: 0.0
SETVI (Foxtail, Green) [6]; rate 0.0313 kg/ha
  Preemergence herbicidal rating SETVI: 0.0
SETVI (Foxtail, Green) [6]; rate 0.0625 kg/ha
  Preemergence herbicidal rating SETVI: 0.0
SETVI (Foxtail, Green) [6]; rate 0.1250 kg/ha
  Preemergence herbicidal rating SETVI: 0.0
SETVI (Foxtail, Green) [6]; rate 0.2500 kg/ha
  Preemergence herbicidal rating SETVI: 0.0
SETVI (Foxtail, Green) [6]; rate 0.5000 kg/ha
  Preemergence herbicidal rating SETVI: 0.0
MOOVA (Monochoria); 0.0313 kg/ha
  Herbicidal rating MOOVA: 4.0
MOOVA (Monochoria); 0.0625 kg/ha
  Herbicidal rating MOOVA: 4.0
MOOVA (Monochoria); 0.1250 kg/ha
  Herbicidal rating MOOVA: 7.0
MOOVA (Monochoria); 0.2500 kg/ha
  Herbicidal rating MOOVA: 9.0
CYPIR (Rice Flatsedge); rate 0.0313 kg/ha
  Herbicidal rating CYPIR: 5.0
CYPIR (Rice Flatsedge); rate 0.0625 kg/ha
  Herbicidal rating CYPIR: 6.0
CYPIR (Rice Flatsedge); rate 0.1250 kg/ha
  Herbicidal rating CYPIR: 6.0
CYPIR (Rice Flatsedge); rate 0.2500 kg/ha
  Herbicidal rating CYPIR: 9.0

## CCCN1C(=O)CSC1=Nc1cc(-n2c(=O)cc(C(F)(F)F)n(C)c2=O)c(F)cc1Cl [Compound 171, 3-{4-Chloro-2-fluoro-5-[(4-oxo-3-propyl-2-thiazolidinylidene)amino]phenyl}-1-methyl-6-(trifluoromethyl)-2,4 (1H, 3H)-pyrimidinedione]
ABUTH (Velvetleaf) [1]; Rate 0.0156 kg/ha
  Postemergence herbicidal rating ABUTH: 9.0
ABUTH (Velvetleaf) [1]; Rate 0.0313 kg/ha
  Postemergence herbicidal rating ABUTH: 9.0
ABUTH (Velvetleaf) [1]; [8]
  herbicidal rating ABUTH: 9.0
AMBEL (Ragweed, Common); Rate 0.0156 kg/ha
  Postemergence herbicidal rating AMBEL: 6.0
AMBEL (Ragweed, Common); Rate 0.0313 kg/ha
  Postemergence herbicidal rating AMBEL: 9.0
AMBEL (Ragweed, Common); [8]
  herbicidal rating AMBEL: 9.0
ECHCG (Barnyardgrass); Rate 0.0156 kg/ha
  Postemergence herbicidal rating ECHCG: 4.0
ECHCG (Barnyardgrass); Rate 0.0313 kg/ha
  Postemergence herbicidal rating ECHCG: 4.0
ECHCG (Barnyardgrass); [8]
  herbicidal rating ECHCG: 3.0
SETVI (Foxtail, Green) [2]; Rate 0.0156 kg/ha
  Postemergence herbicidal rating SETVI: 7.0
SETVI (Foxtail, Green) [2]; Rate 0.0313 kg/ha
  Postemergence herbicidal rating SETVI: 7.0
SETVI (Foxtail, Green) [2]; [8]
  herbicidal rating SETVI: 9.0
[3]; Rate 0.0156 kg/ha
  Postemergence herbicidal rating GLXMAW: 5.5
[3]; Rate 0.0313 kg/ha
  Postemergence herbicidal rating GLXMAW: 6.5
[3]; [8]
  herbicidal rating GLXMAW: 7.0
ORYSAT (Rice, Tebonnet); Rate 0.0156 kg/ha
  Postemergence herbicidal rating ORYSAT: 3.5
ORYSAT (Rice, Tebonnet); Rate 0.0313 kg/ha
  Postemergence herbicidal rating ORYSAT: 4.0
ORYSAT (Rice, Tebonnet); [8]
  herbicidal rating ORYSAT: 5.0
[4]; Rate 0.0156 kg/ha
  Postemergence herbicidal rating TRZAWR: 4.0
[4]; Rate 0.0313 kg/ha
  Postemergence herbicidal rating TRZAWR: 5.0
[4]; [8]
  herbicidal rating TRZAWR: 6.0
ABUTH (Velvetleaf) [5]; 0.0156 kg/ha
  Preemergence herbicidal rating ABUTH: 9.0
ABUTH (Velvetleaf) [5]; 0.0313 kg/ha
  Preemergence herbicidal rating ABUTH: 9.0
ABUTH (Velvetleaf) [5]; 0.0625 kg/ha
  Preemergence herbicidal rating ABUTH: 9.0
ABUTH (Velvetleaf) [5]; 0.1250 kg/ha
  Preemergence herbicidal rating ABUTH: 9.0
ABUTH (Velvetleaf) [5]; 0.2500 kg/ha
  Preemergence herbicidal rating ABUTH: 9.0
CASOB (Sicklepod); 0.0156 kg/ha
  Preemergence herbicidal rating CASOB: 4.0
CASOB (Sicklepod); 0.0313 kg/ha
  Preemergence herbicidal rating CASOB: 5.0
CASOB (Sicklepod); 0.0625 kg/ha
  Preemergence herbicidal rating CASOB: 2.0
CASOB (Sicklepod); 0.1250 kg/ha
  Preemergence herbicidal rating CASOB: 4.0
CASOB (Sicklepod); 0.2500 kg/ha
  Preemergence herbicidal rating CASOB: 9.0
SETVI (Foxtail, Green) [6]; 0.0156 kg/ha
  Preemergence herbicidal rating SETVI: 7.0
SETVI (Foxtail, Green) [6]; 0.0313 kg/ha
  Preemergence herbicidal rating SETVI: 9.0
SETVI (Foxtail, Green) [6]; 0.0625 kg/ha
  Preemergence herbicidal rating SETVI: 9.0
SETVI (Foxtail, Green) [6]; 0.1250 kg/ha
  Preemergence herbicidal rating SETVI: 9.0
SETVI (Foxtail, Green) [6]; 0.2500 kg/ha
  Preemergence herbicidal rating SETVI: 9.0
MOOVA (Monochoria); 0.0313 kg/ha
  herbicidal effect rating, MOOVA: 9.0
MOOVA (Monochoria); 0.0625 kg/ha
  herbicidal effect rating, MOOVA: 9.0
MOOVA (Monochoria); 0.1250 kg/ha
  herbicidal effect rating, MOOVA: 9.0
MOOVA (Monochoria); 0.2500 kg/ha
  herbicidal effect rating, MOOVA: 9.0
[7]; 0.0313 kg/ha
  herbicidal effect rating, SAGPY: 6.0
[7]; 0.0625 kg/ha
  herbicidal effect rating, SAGPY: 7.0
[7]; 0.1250 kg/ha
  herbicidal effect rating, SAGPY: 8.0
[7]; 0.2500 kg/ha
  herbicidal effect rating, SAGPY: 9.0
